The nature of the data set: xn = mol fraction of the nth substance listed. To be noted: Fluid (supercritical or subcritical phases), Taylor dispersion method, x1 = 0.

Here are results for three compounds from the NIST ThermoML archive (doi:10.1021/je400336p).

In the case of `CCC(C)c1ccccc1` (stereo not given) [(1-methylpropyl)benzene] + O=C=O, the binary diffusion coefficient was found to be 1.01e-08 m2/s (313 K, 15000 kPa); 9.15e-09 m2/s (313 K, 20000 kPa); 8.18e-09 m2/s (313 K, 25000 kPa); 7.54e-09 m2/s (313 K, 30000 kPa); 7.24e-09 m2/s (313 K, 35000 kPa); 1.2e-08 m2/s (323 K, 15000 kPa). For the same compound, the binary diffusion coefficient is 1.02e-08 m2/s (323 K, 20000 kPa); 9.3e-09 m2/s (323 K, 25000 kPa); 8.54e-09 m2/s (323 K, 30000 kPa); 8.07e-09 m2/s (323 K, 35000 kPa); 1.32e-08 m2/s (333 K, 15000 kPa); 1.19e-08 m2/s (333 K, 20000 kPa). Also, the binary diffusion coefficient came out at 1.04e-08 m2/s (333 K, 25000 kPa); 9.49e-09 m2/s (333 K, 30000 kPa); 8.98e-09 m2/s (333 K, 35000 kPa).
With `CC(C)Cc1ccccc1` [(2-methylpropyl)benzene] + O=C=O, the binary diffusion coefficient worked out at 1.02e-08 m2/s (313 K, 15000 kPa); 9.12e-09 m2/s (313 K, 20000 kPa); 8.35e-09 m2/s (313 K, 25000 kPa); 7.6e-09 m2/s (313 K, 30000 kPa); 7.28e-09 m2/s (313 K, 35000 kPa); 1.24e-08 m2/s (323 K, 15000 kPa). Further, the binary diffusion coefficient reads like this: (323 K, 20000 kPa) 1.03e-08 m2/s; (323 K, 25000 kPa) 9.43e-09 m2/s; (323 K, 30000 kPa) 8.64e-09 m2/s; (323 K, 35000 kPa) 8.07e-09 m2/s; (333 K, 15000 kPa) 1.4e-08 m2/s; (333 K, 20000 kPa) 1.24e-08 m2/s. The binary diffusion coefficient is 1.07e-08 m2/s (333 K, 25000 kPa); 9.88e-09 m2/s (333 K, 30000 kPa); 9.37e-09 m2/s (333 K, 35000 kPa).
Consider `CC(C)CCc1ccccc1` [(3-methylbutyl)benzene] + O=C=O, for which the binary diffusion coefficient turned out to be 9.63e-09 m2/s (313 K, 15000 kPa); 8.71e-09 m2/s (313 K, 20000 kPa); 7.72e-09 m2/s (313 K, 25000 kPa); 7.24e-09 m2/s (313 K, 30000 kPa); 6.79e-09 m2/s (313 K, 35000 kPa); 1.11e-08 m2/s (323 K, 15000 kPa). Further, the binary diffusion coefficient (323 K, 20000 kPa) stood at 9.92e-09 m2/s; the binary diffusion coefficient (323 K, 25000 kPa) was 8.94e-09 m2/s; the binary diffusion coefficient (323 K, 30000 kPa) came to 8.4e-09 m2/s; the binary diffusion coefficient (323 K, 35000 kPa) was found to be 7.57e-09 m2/s; the binary diffusion coefficient (333 K, 15000 kPa) amounted to 1.32e-08 m2/s; the binary diffusion coefficient (333 K, 20000 kPa) was 1.16e-08 m2/s. Further, the binary diffusion coefficient came out at 1.02e-08 m2/s (333 K, 25000 kPa); 9.21e-09 m2/s (333 K, 30000 kPa); 8.62e-09 m2/s (333 K, 35000 kPa).
